Test results published in patent US20230074252A1, “DOSAGES AND METHODS FOR TREATING PULMONARY ARTERIAL HYPERTENSION WITH RODATRISTAT” (Altavant Sciences GmbH, priority 2020, published 2023).
pEC50: −log10 of the molar value.

Assays:
Format in all cases: in vitro ADME
[1] = tested on: CYP1A2; assay: CYP mRNA induction, cultured human hepatocytes from 3 donors; conditions: clinically relevant concentrations
Protocol: (§1) “mM^”=millimolar. CYP induction was evaluated using cultured human hepatocytes (from 3 donors) treated once daily for 3 days with RE/R concentrations to […].
(§2) CYP induction was evaluated in vitro using cultured human hepatocytes from 3 donors. Rodatristat ethyl and rodatristat caused negligible induction of CYP1A2 (<2% control for the most sensitive responder), CYP2B6 (mean±SD values relative to control of 16.2±20.0% and 15.0±17.9%, respectively), and CYP3A4 (7.1±6.41% and 10.3±11.9%, respectively) mRNA at 20 μM (the highest concentration studied). […] The highest values for induction of CYP2B6 by an individual donor at all concentrations tested were 60.1% and 57.4% at 10 μM for rodatristat ethyl and rodatristat, respectively, and for CYP3A4 were 13.3% and 23.0% at 20 μM, respectively.
(§3) The induction of specific CYP isoforms (CYP1A2, CYP2B6, CYP3A4) was investigated for RVT-1201 and KAR5417 in human hepatocytes (HH) (XT153040). […] CYP2B6 and CYP3A4 mRNA induction by RVT-1201 and KAR5417 (Emax and EC50) were used to estimate the PBPK model parameters Indmax and IndC50. Within the PBPK model, IndC50 is equal to EC50, the concentration of inducer that supports half maximal induction of the CYP isoform (estimated by a sigmoid three parameter fit to in vitro concentration-dependent mRNA induction data). Within the PBPK model, Indmax represents the maximum fold induction relative to incubation with vehicle only (vehicle=1). The reported Emax for RVT-1201 and KAR5417 was estimated by sigmoid three parameter fit to in vitro concentration-dependent mRNA induction data. Baseline activity was set equal to zero, rather than one, therefore reported Emax was increased by adding one to each value to estimate Indmax. CYP2B6 induction data was used in the PBPK model as reported. CYP3A4 induction data was scaled based on the maximum induction by rifampin (at 20 μM). Scaling of CYP3A4 induction using rifampin data from the same system leverages the extensive literature on rifampin induction in vitro and in vivo and allows adjustment of in vitro induction data based on the relative performance of rifampin in each in vitro incubation, and the empirical relationship between rifampin induction of CYP3A4 in vitro and in vivo.

[2] = tested on: CYP2B6; assay: as above; conditions: for Highest induction of CYP2B6 by an individual donor: 10 μM; for Induction of CYP2B6 mRNA, mean±SD relative to control: 20 μM; for Inducer classification, CYP2B6: clinically relevant concentrations; for In vitro induction parameter Emax, CYP2B6 / pEC50: mRNA, human hepatocytes; for pEC50: read-out: In vitro induction parameter EC50, CYP2B6; for Calculated R3 Value, CYP2B6: predicted @ 600 mg BID
Protocol: as §1, §2, §3

[3] = tested on: CYP3A4; assay: as above; conditions: for Highest induction of CYP3A4 by an individual donor / Induction of CYP3A4 mRNA, mean±SD relative to control: 20 μM; for Inducer classification, CYP3A4: clinically relevant concentrations; for In vitro induction parameter Emax, CYP3A4 / pEC50: mRNA, human hepatocytes; for pEC50: read-out: In vitro induction parameter EC50, CYP3A4; for Calculated R3 Value, CYP3A4: predicted @ 600 mg BID
Protocol: as §1, §2, §3

[4] = molecular target: T1, CYP2C8 (Homo sapiens, UniProt P10632); assay: In vitro CYP substrate assessment (victim potential)
T1 sequence (P10632 1-490): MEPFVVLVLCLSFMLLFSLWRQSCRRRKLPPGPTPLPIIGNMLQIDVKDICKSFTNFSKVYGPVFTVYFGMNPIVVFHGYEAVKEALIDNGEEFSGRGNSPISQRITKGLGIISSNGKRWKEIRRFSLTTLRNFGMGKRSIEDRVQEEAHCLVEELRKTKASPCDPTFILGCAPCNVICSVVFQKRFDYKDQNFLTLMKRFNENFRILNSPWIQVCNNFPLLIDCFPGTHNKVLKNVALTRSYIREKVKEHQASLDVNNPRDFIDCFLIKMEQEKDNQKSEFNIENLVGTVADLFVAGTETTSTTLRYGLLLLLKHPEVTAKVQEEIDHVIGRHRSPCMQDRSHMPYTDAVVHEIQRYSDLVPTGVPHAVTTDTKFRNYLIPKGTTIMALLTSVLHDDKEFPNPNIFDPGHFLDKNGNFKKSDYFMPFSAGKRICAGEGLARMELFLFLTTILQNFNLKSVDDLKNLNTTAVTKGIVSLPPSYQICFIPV

[5] = molecular target: T2, OATP1B1 (Homo sapiens, UniProt Q9Y6L6); assay: In vitro transporter substrate assessment
T2 construct: expressed in transfected cells; host or cells: HEK293
T2 sequence (Q9Y6L6 1-691): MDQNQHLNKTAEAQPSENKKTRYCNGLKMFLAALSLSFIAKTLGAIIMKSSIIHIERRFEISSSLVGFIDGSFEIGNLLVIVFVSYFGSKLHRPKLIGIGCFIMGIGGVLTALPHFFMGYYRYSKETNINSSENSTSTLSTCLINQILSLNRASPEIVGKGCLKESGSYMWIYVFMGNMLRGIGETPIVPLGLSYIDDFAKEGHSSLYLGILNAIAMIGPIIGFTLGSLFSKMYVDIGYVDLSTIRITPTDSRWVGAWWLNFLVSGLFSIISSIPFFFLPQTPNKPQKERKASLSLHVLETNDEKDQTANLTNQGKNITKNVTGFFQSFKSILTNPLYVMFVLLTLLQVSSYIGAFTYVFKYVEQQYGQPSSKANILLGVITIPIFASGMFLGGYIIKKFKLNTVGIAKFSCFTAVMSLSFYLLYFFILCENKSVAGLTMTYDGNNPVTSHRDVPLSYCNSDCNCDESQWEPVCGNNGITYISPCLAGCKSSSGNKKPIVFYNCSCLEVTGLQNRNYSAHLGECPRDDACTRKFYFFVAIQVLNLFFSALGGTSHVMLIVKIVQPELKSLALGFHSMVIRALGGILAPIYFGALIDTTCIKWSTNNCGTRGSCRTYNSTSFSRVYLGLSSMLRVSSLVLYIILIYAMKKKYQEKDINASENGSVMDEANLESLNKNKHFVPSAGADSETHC

Inducer classification, CYP1A2 [1]	Highest induction of CYP2B6 by an individual donor [2] [%]	Induction of CYP2B6 mRNA, mean±SD relative to control [2] [%]	Inducer classification, CYP2B6 [2]	In vitro induction parameter Emax, CYP2B6 [2]	pEC50 [2]	Calculated R3 Value, CYP2B6 [2]	Highest induction of CYP3A4 by an individual donor [3] [%]	Induction of CYP3A4 mRNA, mean±SD relative to control [3] [%]	Inducer classification, CYP3A4 [3]	In vitro induction parameter Emax, CYP3A4 [3]	pEC50 [3]	Calculated R3 Value, CYP3A4 [3]	Calculated R3 Value, CYP3A4 ([3]; listed as rodatristat ethyl)	In vitro substrate? CYP2C8 [4]	In vitro substrate? OATP1B1 [5]	Accumulation by OATP1B1 uptake transporter ([5]; 3 μM) [fold]	SMILES
not considered inducers	60.1	16.2±20.0	potentially weak to moderate inducers	3.1	5.21	0.960	13.3	7.1±6.41	potential weak inducers	4.53	4.81	0.925	0.478	No	not a substrate and No		CCOC(=O)[C@@H]1CC2(CCN(c3cc(O[C@H](c4ccc(Cl)cc4-c4ccccc4)C(F)(F)F)nc(N)n3)CC2)CN1 [Rodatristat ethyl, (S)-ethyl 8-(2-amino-6-((R)-1-(5-chloro-[1,1′-biphenyl]-2-yl)-2,2,2-trifluoroethoxy)pyrimidin-4-yl)-2,8-diazaspiro[4.5]decane-3-carboxylate]
not considered inducers	57.4	15.0±17.9	potentially weak to moderate inducers	2.95	5.25	0.766	23.0	10.3±11.9	potential weak inducers	4.5	4.57	0.476		No	is an in vitro substrate and Yes	2.22	Nc1nc(O[C@H](c2ccc(Cl)cc2-c2ccccc2)C(F)(F)F)cc(N2CCC3(CC2)CN[C@H](C(=O)O)C3)n1 [Rodatristat, (S)-8-(2-amino-6-((R)-1-(5-chloro-[1,1′-biphenyl]-2-yl)-2,2,2-trifluoroeth-oxy)pyrimidin-4-yl)-2,8-diazaspiro[4.5]decane-3-carboxylic acid]
